Laboratory results taken from ChEMBL document CHEMBL1150858, “Two new cytotoxic and virucidal trisulfated triterpene glycosides from the Antarctic sea cucumber Staurocucumis liouvillei” (J Nat Prod, 2001).

Assays:
Vero [1] = experiment: Cytotoxicity against african green monkey Vero cells at 6.25 to 50 ug/mL within 8 hrs by MTT assay; format: cell-based; settings: chlorocebus sabaeus
Vero [2] = experiment: Cytotoxicity against african green monkey Vero cells at 6.25 to 50 ug/mL measured after prolonged incubation by MTT assay; format: cell-based; settings: chlorocebus sabaeus
Human alphaherpesvirus 1 = experiment: Antiviral activity against HSV1 KOS in african green monkey Vero cells assessed as residual infectivity at 10 ug/mL by plaque formation assay; format: functional

SMILES | Activity (Vero [1]) | Activity (Vero [2]) | Activity (Human alphaherpesvirus 1)
CO[C@@H]1[C@@H](O)[C@H](O[C@@H]2[C@@H](O)[C@H](O[C@H]3[C@H](O)[C@@H](O)[C@H](O[C@H]4[C@H](O[C@H]5CC[C@]6(C)[C@H]7CC[C@]89C(=O)O[C@@](C)(CCC=C(C)C)[C@H]8[C@@H](OC(C)=O)C[C@@]9(C)C7=CC[C@H]6C5(C)C)OC[C@@H](OS(=O)(=O)[O-])[C@@H]4O)O[C@@H]3C)O[C@H](COS(=O)(=O)[O-])[C@H]2O)O[C@H](COS(=O)(=O)[O-])[C@H]1O.[Na+].[Na+].[Na+] [LIOUVILLOSIDE A] | Non-toxic | Toxic | 24%
CO[C@@H]1[C@@H](O)[C@H](O[C@@H]2[C@@H](O)[C@H](O[C@H]3[C@H](O)[C@@H](O)[C@H](O[C@H]4[C@H](O[C@H]5CC[C@]6(C)[C@H]7CC[C@]89C(=O)O[C@@](C)(CCCC(C)C)[C@H]8[C@@H](OC(C)=O)C[C@@]9(C)C7=CC[C@H]6C5(C)C)OC[C@@H](OS(=O)(=O)[O-])[C@@H]4O)O[C@@H]3C)O[C@H](COS(=O)(=O)[O-])[C@H]2O)O[C@H](COS(=O)(=O)[O-])[C@H]1O.[Na+].[Na+].[Na+] [LIOUVILLOSIDE B] | Non-toxic | Toxic | 2.5%
